Here are results for 7 molecules from patent publication US9481659B2, “Selective heterocyclic sphingosine 1 phosphate receptor modulators” (Celgene International II SÀRL, priority 2011, dated 2016).

For one test, the target named is T1, S1P2 (Homo sapiens, UniProt O95136).
T1 construct: expressed in transfected cells; host or cells: CRE-bla CHOK1
The test is described as follows: Specificity over other S1P receptors: S1P2 CRE-bla CHOK1. In kind it is cell-based. The note with it: S1P2 CRE-bla CHOK1, without Forskolin; read-out: S1P2 agonist value (EC50). As to the method:
(§1) Cells were seeded into 384-well black wall/clear bottom plates at 10^4 cells/well/19.5 μl assay media (DMEM-phenol free, 0.5% charcoal/dextran stripped serum, 2 mM glutamine, 0.1 mM NEAA, 1 mM Na-Pyruvate, 25 mM Hepes) and incubated for 18 hrs at 37° C. in 5% CO2. Dose response curves (10-point) were generated in 10 mM Hepes, 0.1% Pluronic F127, in the presence of Forskolin. Cells were treated with 0.5 μl compound in the presence of 2 μM Forskolin for 4 hrs at 37° C. The FRET-based β-lactamase fluorescent substrate (LiveBLAzer™-FRET B/G Loading Kit CC4-AM; Invitrogen) was prepared according to manufacturer's directions, and incubated with cells for 2 hrs at room temperature. Plates were read at Ex:410/Em:458 and Ex:410/Em:522, and the response ratio determined Data was analyzed by non-linear regression to determine the EC50 for inhibition of Forskolin induced cAMP.
(§2) To assess compound specificity on other […] receptors the following cell lines were used: S1P2 CRE-bla CHOK1, S1P3-Gα15 NFAT-bla HEK293T (Invitrogen), S1P4-bla TANGO U2OS (Invitrogen), S1P5-bla TANGO U2OS (Invitrogen). The same assay set up for S1P1 was used but without Forskolin. S1P4 and S1P5 assays were performed in FreeStyle Expression medium (Invitrogen). S1P5 cells were incubated for 48 hrs in prior to treatment with compound.

For a further test, the target named is T2, S1P3 (Homo sapiens, UniProt Q99500).
T2 construct: host or cells: NFAT-bla HEK293T
T2 sequence (Q99500 whole entry): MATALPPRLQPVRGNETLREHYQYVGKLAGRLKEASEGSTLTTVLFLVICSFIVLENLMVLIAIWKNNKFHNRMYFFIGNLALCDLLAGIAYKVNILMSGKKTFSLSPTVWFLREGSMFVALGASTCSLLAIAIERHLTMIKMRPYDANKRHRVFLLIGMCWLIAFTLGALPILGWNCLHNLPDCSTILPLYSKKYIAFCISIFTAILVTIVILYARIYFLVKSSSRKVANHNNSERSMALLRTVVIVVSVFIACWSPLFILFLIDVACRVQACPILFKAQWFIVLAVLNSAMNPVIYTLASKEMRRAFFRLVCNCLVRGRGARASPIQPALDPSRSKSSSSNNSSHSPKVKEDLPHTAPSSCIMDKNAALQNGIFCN
Briefly: Specificity over other S1P receptors: S1P3-Gα15 NFAT-bla HEK293T. In kind it is cell-based. The conditions noted are these: without Forskolin, read-out: S1P3 agonist value (EC50). As to the method:
as §1, §2

The subject of test [1] is CD4 or CD8 positive T cells. Briefly: Lymphopenia in rats. In kind it is in vivo. The note with it: for inhibition in vivo at 0.2 mg/kg: po, rat, 24 h after a 0.2 mg/kg single dose; for ED50: read-out: ED50 (estimated dose needed to produce 50% lymphopenia), rat, at 24 h after a 3-5 day dosing regimen. As to the method:
In rats: Female rats (Simonsen Laboratories, Gilroy Calif.) were housed in an ALAAC accredited facility and the research was approved by the facilities Institutional Animal Care and Use Committee (IACUC). The animals were acclimated to the laboratory for at least 5 days prior to initiation of experiments. Rats (n=3/compound/time-point) were dosed by oral gavage with 1 mg/kg compound formulated in a vehicle consisting of 5% DMSO/5% Tween 20 and 90% 0.1N HCL. Control rats were dosed PO with the vehicle. Whole blood was collected from isoflurane anesthetized rats via the retro-orbital sinus and terminal samples were collected by cardiac puncture into EDTA. Whole blood was incubated with mouse anti-rat CD32 (BD #550271), PE-mouse anti-rat CD45R/B220 (BD #554881), PECy5-mouse anti-rat CD4 (BD #554839), and APC-mouse anti-rat CD8a (eBioscience #17-0084) for 30 minutes on ice. Red blood cells were lysed using BD Pharm Lyse Lysing buffer (#555899) and white blood cells were analyzed with a BD FACSArray. Lymphopenia was expressed as the % of white blood cells that were CD4 or CD8 positive T cells. The overall lymphopenia response over 24 h was estimated by calculating the area under the effect curve (AUEC) using the linear trapezoidal rule. In some experiments, total lymphocyte counts were determined using a standard impedance based veterinary hematology analyzer (IDEXX Preclinical Research Services, Sacramento, Calif.).
The percentage of lymphopenia at 24 h after a 0.2 mg/kg single dose regiment is reported. […] N/A is not available.

The next test has as its target T3, S1P4 (Homo sapiens, UniProt O95977).
T3 construct: Tango fusion: TEV protease site plus GAL4-VP16 transcription factor (own knowledge of the Tango format); host or cells: U2OS (bla TANGO)
T3 sequence (O95977 1-384): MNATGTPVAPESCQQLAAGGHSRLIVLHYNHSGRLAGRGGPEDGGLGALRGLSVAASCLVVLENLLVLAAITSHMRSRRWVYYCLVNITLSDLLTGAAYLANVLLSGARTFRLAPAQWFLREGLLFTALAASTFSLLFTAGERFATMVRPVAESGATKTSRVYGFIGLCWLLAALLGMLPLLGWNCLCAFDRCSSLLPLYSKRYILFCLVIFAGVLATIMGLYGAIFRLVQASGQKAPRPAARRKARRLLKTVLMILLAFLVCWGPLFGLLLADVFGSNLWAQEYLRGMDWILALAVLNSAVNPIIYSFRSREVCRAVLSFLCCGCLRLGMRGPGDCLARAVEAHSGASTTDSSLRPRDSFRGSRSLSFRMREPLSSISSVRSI
Briefly: Specificity over other S1P receptors: S1P4-bla TANGO U2OS. Format: cell-based. The conditions noted are these: without Forskolin, read-out: S1P4 agonist value (EC50). As to the method:
as §1, with “temperature.” for “temperature. Plates were read at Ex:410/Em:458 and Ex:410/Em:522, and the response ratio determined Data was analyzed by non-linear regression to determine the EC50 for inhibition of Forskolin induced cAMP.”
as §2

The target in the next test is T4, S1P5 (Homo sapiens, UniProt Q9H228).
T4 construct: Tango fusion: TEV protease site plus GAL4-VP16 transcription factor (own knowledge of the Tango format); host or cells: U2OS (bla TANGO)
T4 sequence (Q9H228 whole entry, the tested form may be a part): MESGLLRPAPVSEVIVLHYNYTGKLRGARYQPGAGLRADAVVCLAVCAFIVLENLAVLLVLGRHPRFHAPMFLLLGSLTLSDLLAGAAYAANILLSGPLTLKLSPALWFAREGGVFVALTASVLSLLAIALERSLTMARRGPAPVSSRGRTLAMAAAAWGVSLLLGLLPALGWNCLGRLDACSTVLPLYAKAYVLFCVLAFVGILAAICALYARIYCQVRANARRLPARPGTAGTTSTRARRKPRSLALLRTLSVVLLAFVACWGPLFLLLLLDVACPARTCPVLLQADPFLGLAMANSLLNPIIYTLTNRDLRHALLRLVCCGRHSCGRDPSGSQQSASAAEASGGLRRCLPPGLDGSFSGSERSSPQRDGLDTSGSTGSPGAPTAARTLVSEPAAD
Briefly: Specificity over other S1P receptors: S1P5-bla TANGO U2OS. Format: cell-based. The note with it: without Forskolin, read-out: S1P5 agonist value (EC50). As to the method: as §1, with “temperature.” for “temperature. Plates were read at Ex:410/Em:458 and Ex:410/Em:522, and the response ratio determined Data was analyzed by non-linear regression to determine the EC50 for inhibition of Forskolin induced cAMP.”
as §2

A further test has as its target S1P1/EDG1 (Homo sapiens, UniProt P21453). The test is described as follows: S1P1 CRE-bla CHOK1 reporter assay, inhibition of Forskolin induced cAMP. In kind it is cell-based. The conditions noted are these: S1P1 CRE-bla CHOK1 cells, 2 μM Forskolin. The essentials:
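CRE-bla CHO K1 cells stably expressing human S1P1 were treated 4 hrs at 37° C with 10-point compound dilutions plus 2 μM Forskolin. Inhibition of cAMP-driven β-lactamase reporter was read with a FRET substrate loaded 2 hrs at room temperature.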

Setting [2] is: read-out: S1P1 agonist value (EC50).
Where [3] appears, read: agonist activity range, read-out: S1P1 ACTIVITY

Structures are written as SMILES. Where two headings read alike, the source gives them in different places.

T1 sequence (O95136 whole entry, species assumed): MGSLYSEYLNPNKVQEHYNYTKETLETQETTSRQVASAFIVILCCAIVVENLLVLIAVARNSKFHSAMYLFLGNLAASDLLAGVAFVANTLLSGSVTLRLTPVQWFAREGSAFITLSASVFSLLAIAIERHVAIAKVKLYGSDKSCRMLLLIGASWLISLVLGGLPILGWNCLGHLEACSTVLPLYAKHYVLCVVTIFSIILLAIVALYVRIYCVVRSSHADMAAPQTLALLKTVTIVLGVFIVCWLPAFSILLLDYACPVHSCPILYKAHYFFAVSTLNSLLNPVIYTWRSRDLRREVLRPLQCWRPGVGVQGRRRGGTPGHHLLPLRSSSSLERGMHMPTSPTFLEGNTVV
Sequence of S1P1/EDG1 (P21453 whole entry): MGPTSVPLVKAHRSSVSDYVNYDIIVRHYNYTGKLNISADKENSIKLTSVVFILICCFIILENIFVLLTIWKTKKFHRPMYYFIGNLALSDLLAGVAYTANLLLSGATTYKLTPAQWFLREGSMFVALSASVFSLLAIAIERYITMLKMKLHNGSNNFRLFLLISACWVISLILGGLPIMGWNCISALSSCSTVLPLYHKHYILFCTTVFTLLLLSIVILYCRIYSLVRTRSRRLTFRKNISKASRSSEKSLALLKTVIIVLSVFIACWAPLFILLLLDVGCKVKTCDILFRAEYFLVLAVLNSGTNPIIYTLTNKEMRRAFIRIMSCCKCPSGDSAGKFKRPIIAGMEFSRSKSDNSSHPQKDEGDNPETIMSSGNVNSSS

By inhibition in vivo is commonly meant the share of the control response that was lost under treatment. In the case of `CC(C)Oc1ccc(-c2nnc(-c3cccc4c3CCC4NS(=O)(=O)CC(=O)N(C)C)s2)cc1C#N` (stereo in doubt) [Compound 43, (R)-2-(N-(4-(5-(3-cyano-4-isopropoxyphenyl)-1,3,4-thiadiazol-2-yl)-2,3-dihydro-1H-inden-1-yl)sulfamoyl)-N,N-dimethylacetamide], the EC50 at S1P2, at S1P3 and on S1P4 was > 10000 nM throughout. Also, testing at 0.2 mg/kg in test [1] gave an inhibition in vivo of 40%.

As to `CC(C)Oc1ccc(-c2nnc(-c3cccc4c3CCC4NS(=O)(=O)CCO)s2)cc1C#N` (stereo in doubt) [Compound 46, (R)—N-(4-(5-(3-cyano-4-isopropoxyphenyl)-1,3,4-thiadiazol-2-yl)-2,3-dihydro-1H-inden-1-yl)-2-hydroxyethanesulfonamide], the EC50 at S1P2 and at S1P3 was > 10000 nM throughout. Also, the inhibition in vivo at 0.2 mg/kg in test [1] is 39%.

For the molecule `CC(C)Oc1ccc(-c2nnc(-c3cccc4c3CC[C@H]4NC(=O)N3CC[C@@H](N(C)C)C3)s2)cc1C#N` [Compound 56, (R)—N—((R)-4-(5-(3-cyano-4-isopropoxyphenyl)-1,3,4-thiadiazol-2-yl)-2,3-dihydro-1H-inden-1-yl)-3-(dimethylamino)pyrrolidine-1-carboxamide], the EC50 on S1P5 is 139 nM; at S1P2, > 10000 nM; at S1P1/EDG1 (setting [2]) it was 0.32 nM; at S1P1/EDG1 (setting [3]), 0.05 to 0.5 nM; at S1P3, > 10000 nM; at S1P4, > 10000 nM. This molecule came in with an inhibition in vivo at 0.2 mg/kg in test [1] of 52%.

Turning to `CC(C)Oc1ccc(-c2nnc(-c3cccc4c3CC[C@H]4NC(=O)N3CCOCC3)s2)cc1C#N` [Compound 58, (R)—N-(4-(5-(3-cyano-4-isopropoxyphenyl)-1,3,4-thiadiazol-2-yl)-2,3-dihydro-1H-inden-1-yl)morpholine-4-carboxamide], the EC50 was > 10000 nM at S1P2, 0.05 to 0.5 nM at S1P1/EDG1 (setting [3]) and > 10000 nM on S1P4.

The ED50 is the midpoint of the dose-response relation. For `CC(C)Oc1ccc(-c2ncc(-c3cccc4c3CC[C@H]4NS(N)(=O)=O)s2)cc1C#N` [Compound 166, (R)—N-(4-(2-(3-cyano-4-isopropoxyphenyl)thiazol-5-yl)-2,3-dihydro-1H-inden-1-yl)sulfamide], the EC50 at S1P5 is 64 nM; on S1P2 it was 8450 nM; at S1P1/EDG1 (setting [2]), 0.14 nM; on S1P1/EDG1 (setting [3]), 0.05 to 0.5 nM; on S1P3 it was > 10000 nM; on S1P4, 743 nM. 0.2 mg/kg produced 47% inhibition in vivo in test [1]. For the same molecule, in test [1], the median effective dose (ED50) is 0.07 mg/kg.

`CC(C)Oc1ccc(-c2ncc(-c3cccc4c3CC[C@H]4NC(=O)N3CCCC3)s2)cc1C#N` [Compound 172, (R)—N-(4-(2-(3-cyano-4-isopropoxyphenyl)thiazol-5-yl)-2,3-dihydro-1H-inden-1-yl)pyrrolidine-1-carboxamide]: the EC50 on S1P5 was 203 nM; on S1P2, > 10000 nM; on S1P1/EDG1 (setting [2]) it was 0.19 nM; at S1P1/EDG1 (setting [3]), 0.05 to 0.5 nM; on S1P3 it was > 10000 nM; on S1P4, > 10000 nM. At 0.2 mg/kg the inhibition in vivo in test [1] was 22%. Also, the 50% effective dose (ED50) in test [1] is 0.2 mg/kg.

For the molecule `CC(C)Oc1ccc(-c2ncc(-c3cccc4c3CC[C@H]4NC(=O)N3CCOCC3)s2)cc1C#N` [Compound 186, (R)—N-(4-(2-(3-cyano-4-isopropoxyphenyl)thiazol-5-yl)-2,3-dihydro-1H-inden-1-yl)morpholine-4-carboxamide], the EC50 on S1P2 is > 10000 nM; at S1P1/EDG1 (setting [3]), 0.05 to 0.5 nM; on S1P4 it was > 10000 nM.
